# In patent US20240335452A1, “COMPOSITIONS AND METHODS OF COMBINATION THERAPY FOR TARGETING LYMPHOMA” (Cullgen (Shanghai), Inc., priority 2021, published 2024):
# What was measured:
# IKZF1 or IKZF3 = conditions: more potent than older IMiDs; stated as 'may be'; cited from earlier work
# SU-DHL-10 cells [1] = test: Cell viability assay (CellTiter-Glo) in SU-DHL-10 cells; format: cell-based, human
# OCI-LY7 cells = test: Cell viability assay (CellTiter-Glo) in OCI-LY7 cells; format: cell-based, human
# Procedure: (§1) Experiments were performed in cultured human cells to assess the efficacy of combined EZH2 inhibitor and immunomodulatory drug (e.g., an IMiD) treatment using an EZH2-mutant DLBCL cell line, SU-DHL-10, and an EZH2-wild type line, OCI-LY7. Cells were purchased from Nanjing Cobioer Biotechnology. SU-DHL-10 and OCI-LY7 cells were cultured at 37° C. with 5% CO2 in RPMI 1640 Medium supplemented with 10% fetal bovine serum. Cells were authenticated using the short tandem repeat (STR) assays. Mycoplasma test results were negative.
# (§2) The cultured cells were seeded at a density of 5000 cells per well in 96-well assay plates and treated with test compounds at 10 μM followed by a 11-point 3-fold serial dilution or an 8-point 10-fold serial dilution. Cell viability was determined after 5 days, using the CellTiter-Glo assay kit (Promega) according to the manufacturer's instructions. The dose-response curves were determined and IC50 values were calculated using the GraphPad Prism software following a nonlinear regression (least squares fit) method. Each data point in the figure represents the mean values of at least two technical replicates ± standard deviation.
# (§3) Cells were treated with EZH2 inhibitors in the presence of IMiDs at concentrations sufficient to induce degradation of IKZF1 and IKZF3 but not enough to kill cells. CC-122 and CC-220 were tested at a concentration of 1 μM; CC-92480 and CFT7455 were tested at a concentration of 1 nM; and CC-99282 was tested at a concentration of 10 nM.
# SU-DHL-10 cells [2] = test: Cell viability assay (CellTiter-Glo) in SU-DHL-10 cells; format: cell-based, human; conditions: SU-DHL-10, single agent, 5 days
# Procedure: as §1, §2, §3
SMILES,potency with regard to IKZF1 or IKZF3 degradation relative to older IMiDs (IKZF1 or IKZF3),"cell viability (sensitivity of the cells to the compound in combination) (SU-DHL-10 cells [1]; SU-DHL-10, in the presence of 100 nM CPI-0209)","cell viability (sensitivity of the cells to the compound in combination) (SU-DHL-10 cells [1]; SU-DHL-10, in the presence of 100 nM SHR2554)","cell viability (sensitivity of the cells to the compound in combination) (OCI-LY7 cells; OCI-LY7, in the presence of 100 nM CPI-0209)","cell viability (sensitivity of the cells to the compound in combination) (OCI-LY7 cells; OCI-LY7, in the presence of 100 nM SHR2554)","cell viability, response of the cells to the single agent (OCI-LY7 cells; OCI-LY7, single agent, 5 days)","cell viability, response of the cells to the single agent (SU-DHL-10 cells [2])"
"N#Cc1ccc(N2CCN(Cc3ccc(COc4cccc5c4CN([C@H]4CCC(=O)NC4=O)C5=O)cc3)CC2)c(F)c1 [CC-92480, mezigdomide]",1000 fold,,,,,,
"O=C1CC[C@H](N2C(=O)c3cccc4c(Cc5ccc(CN6CCOCC6)cc5)ccc2c34)C(=O)N1 [CFT7455, (S)-3-(6-(4-(morpholinomethyl)benzyl)-2-oxobenzo[cd]indol-1(2H)-yl)piperidine-2,6-dione]",,lowered cell viability more than treatment with CFT7455 alone,lowered cell viability more than treatment with CFT7455 alone,lowered cell viability more than treatment with CFT7455 alone,lowered cell viability more than treatment with CFT7455 alone,moderately responsive,moderately responsive
